In patent US8759014B2, “Methods of obtaining antigen-specific T cell populations” (The United States of America, as represented by the …, priority 2008, dated 2014):

Test system: PBMC from HLA-A2+ metastatic melanoma patients
Assay: not given
Conditions: not given

| Compound | number of patients with at least one microculture with significant peptide reactivity (SI >2) |
| --- | --- |
| CC[C@H](C)[C@H](N)C(=O)N[C@H](C(=O)N[C@@H](CC(=O)O)C(=O)N[C@@H](CCC(N)=O)C(=O)N[C@H](C(=O)N1CCC[C@H]1C(=O)N[C@@H](Cc1ccccc1)C(=O)N[C@@H](CO)C(=O)N[C@H](C(=O)O)C(C)C)C(C)C)[C@@H](C)O [gp100209-217] | 16 patients |

Same assay, conditions: 17 HLA-A2+ melanoma patients (8 for gp100154-162); 1 μM peptide, 6 days, IL-2 90 IU/ml

| Compound | percent of patients with individual wells with peptide reactivity above background |
| --- | --- |
| CC[C@H](C)[C@H](N)C(=O)N[C@H](C(=O)N[C@@H](CC(=O)O)C(=O)N[C@@H](CCC(N)=O)C(=O)N[C@H](C(=O)N1CCC[C@H]1C(=O)N[C@@H](Cc1ccccc1)C(=O)N[C@@H](CO)C(=O)N[C@H](C(=O)O)C(C)C)C(C)C)[C@@H](C)O [gp100209-217] | 94% |

Test system: PBMC sub-populations
Assay: HT-qPCR IFN-γ screen of PBMC sub-populations contacted with candidate mesothelin peptides
Assay type: cell-based, human
Conditions: highest IFN-γ mRNA stimulation index of PBMC sub-populations contacted with the peptide and IL-2; SI <2 = not reactive
Protocol: PBMCs obtained by leukapheresis from HLA-A2+ metastatic melanoma patients are used to establish 96 independent subpopulations cultured in complete medium (CM) consisting of RPMI 1640 supplemented with 10% heat-inactivated fetal bovine serum, 2 mM L-glutamine (Invitrogen, Carlsbad, Calif.), 50 units/mL penicillin (Invitrogen), 50 μg/mL streptomycin (Invitrogen), 50 μg/mL gentamicin (Invitrogen), 10 mM Hepes (Invitrogen), and 250 ng/mL Amphotericin B (Invitrogen), along with 10% heat-inactivated human AB serum (Gemini Bio-Products, Woodland, Calif.). […] The SI reactivities for the 96 wells are stratified by their magnitude and the most reactive subpopulations are selected for limiting dilution cloning.
Mesothelin peptides of the following amino acid sequence are synthesized as essentially described in Example 1: […] (SEQ ID NO: 12), […] (SEQ ID NO: 11), […] (SEQ ID NO: 13), […] (SEQ ID NO: 14), […] (SEQ ID NO: 15), […] (SEQ ID NO: 16), […] (SEQ ID NO: 17), […] (SEQ ID NO: 18), […] (SEQ ID NO: 19), and […] (SEQ ID NO: 20). The peptides are used to contact PBMC sub-populations along with IL-2 in accordance with the procedures described in Example 4. HT-qPCR is performed on a sample of each sub-population to determine the expression of IFN-γ by the contacted PBMC sub-populations.

| Compound | Highest SI (Day 14) |
| --- | --- |
| FLLFSLGWV | 29 |
| LIFYKKWEL | <2 |
| LLATQMDRV | <2 |
| LLGFPCAEV | <2 |
| LPLDLLLFL | <2 |
| NMNGSEYFV | *<2 |
| RLSEPPEDL | <2 |
| SLLFLLFSL | 119 |
| VLLPRLVSC | <2 |
| VLPLTVAEV | <2 |
